Measured values: patent US12559492B2, “BRAF degraders” (C4 Therapeutics, Inc., priority 2020, dated 2026)
Counter-ions that a name gives are not always drawn.

Target: BRAF^V600E protein (Homo sapiens, UniProt P15056, V600E)
Test: HiBiT cellular BRAF V600E degradation assay
Assay type: cell-based
Settings: 24 h incubation; for DC50: A375.10 cells (HiBiT tag knocked in at N-terminal of BRAF V600E), concentration at which 50% of total cellular BRAF V600E is degraded; for Emax: read-out: HiBit 24 h Emax
[1] = A375.10 cells, Emax = amount of residual protein remaining in the cell after compound treatment

BRAF^V600E protein, sequence (P15056 whole entry V600E): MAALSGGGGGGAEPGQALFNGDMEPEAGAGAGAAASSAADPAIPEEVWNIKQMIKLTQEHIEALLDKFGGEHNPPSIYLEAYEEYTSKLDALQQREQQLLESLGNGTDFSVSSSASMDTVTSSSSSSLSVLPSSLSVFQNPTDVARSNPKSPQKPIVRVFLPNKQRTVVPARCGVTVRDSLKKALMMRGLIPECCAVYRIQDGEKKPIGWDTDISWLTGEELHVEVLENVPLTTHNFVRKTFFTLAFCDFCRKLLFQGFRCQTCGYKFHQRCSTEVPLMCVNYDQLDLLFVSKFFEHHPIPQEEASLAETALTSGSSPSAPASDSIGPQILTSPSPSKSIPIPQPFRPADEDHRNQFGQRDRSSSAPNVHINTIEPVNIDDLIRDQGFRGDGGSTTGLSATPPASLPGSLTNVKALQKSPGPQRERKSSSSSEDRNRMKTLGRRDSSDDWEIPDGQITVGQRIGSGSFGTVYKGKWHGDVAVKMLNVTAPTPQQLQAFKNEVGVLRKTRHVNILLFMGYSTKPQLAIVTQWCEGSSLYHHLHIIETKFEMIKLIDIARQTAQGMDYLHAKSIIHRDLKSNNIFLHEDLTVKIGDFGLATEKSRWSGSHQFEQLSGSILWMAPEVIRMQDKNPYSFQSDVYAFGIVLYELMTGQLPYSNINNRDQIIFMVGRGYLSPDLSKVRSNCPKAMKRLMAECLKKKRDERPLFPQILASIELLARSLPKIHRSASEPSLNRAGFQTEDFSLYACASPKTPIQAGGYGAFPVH

Row | Compound | DC50 | Emax [1] | HiBit 24 h Emax [1]
1 | CCN(C)S(=O)(=O)Nc1ccc(F)c(C(=O)c2c[nH]c3ncc(-c4cnc(N5CCN(C(=O)CN6CCC(n7cc(NC8CCC(=O)NC8=O)cn7)CC6)CC5)nc4)cc23)c1F (stereo not drawn) [Example A79, 5-[2-[4-[2-[4-[4-[(2,6-Dioxopiperidin-3-yl)amino]pyrazol-1-yl]piperidin-1-yl]acetyl]piperazin-1-yl]pyrimidin-5-yl]-3-[3-[[ethyl(methyl)sulfamoyl]amino]-2,6-difluorobenzoyl]-1H-pyrrolo[2,3-b]pyridine] | 60 nM | 22% | –
2 | CCN(C)S(=O)(=O)Nc1ccc(F)c(C(=O)c2c[nH]c3ncc(-c4ccc(N5CCN(C(=O)CN6CCC(n7cc(NC8CCC(=O)NC8=O)cn7)CC6)CC5)cc4)cc23)c1F (stereo not drawn) [Example A80, 5-[4-[4-[2-[4-[4-[(2,6-Dioxopiperidin-3-yl)amino]pyrazol-1-yl]piperidin-1-yl]acetyl]piperazin-1-yl]phenyl]-3-[3-[[ethyl(methyl)sulfamoyl]amino]-2,6-difluorobenzoyl]-1H-pyrrolo[2,3-b]pyridine] | 27.5 nM | 21.6% | –
3 | CCN(C)S(=O)(=O)Nc1ccc(F)c(C(=O)c2c[nH]c3ncc(-c4ccc(N5CCN(C(=O)CCCN6CCC(c7ccc(C8CCC(=O)NC8=O)cc7)CC6)CC5)nc4)cc23)c1F (stereo not drawn) [Example A81, 5-[6-[4-[4-[4-[4-(2,6-Dioxopiperidin-3-yl)phenyl]piperidin-1-yl]butanoyl]piperazin-1-yl]pyridin-3-yl]-3-[3-[[ethyl(methyl)sulfamoyl]amino]-2,6-difluorobenzoyl]-1H-pyrrolo[2,3-b]pyridine] | 49 nM | 13% | –
4 | O=C1CCC(c2ccc(C3CCN(CC(=O)N4CCN(c5ccc(-c6cnc7[nH]cc(C(=O)c8c(F)ccc(NS(=O)(=O)N9CCCC9)c8F)c7c6)cc5)CC4)CC3)cc2)C(=O)N1 (stereo not drawn) [Example A85, N-[3-[5-[4-[4-[2-[4-[4-(2,6-Dioxopiperidin-3-yl)phenyl]piperidin-1-yl]acetyl]piperazin-1-yl]phenyl]-1H-pyrrolo[2,3-b]pyridine-3-carbonyl]-2,4-difluorophenyl]pyrrolidine-1-sulfonamide] | 16 nM | 11% | –
5 | CCN(C)S(=O)(=O)Nc1ccc(F)c(C(=O)c2c[nH]c3ncc(C#Cc4ccc(C(=O)NCCN5CCC(c6ccc(NC7CCC(=O)NC7=O)cc6)CC5)cc4)cc23)c1F (stereo not drawn) [Example A86, N-[2-[4-[4-[(2,6-Dioxopiperidin-3-yl)amino]phenyl]piperidin-1-yl]ethyl]-4-[2-[3-[3-[[ethyl(methyl)sulfamoyl]amino]-2,6-difluorobenzoyl]-1H-pyrrolo[2,3-b]pyridin-5-yl]ethynyl]benzamide] | 32 nM | 23% | –
6 | O=C1CCN(c2cccc(C3CCN(CC(=O)N4CCN(c5ccc(-c6cnc7[nH]cc(C(=O)c8c(F)ccc(NS(=O)(=O)N9CCCC9)c8F)c7c6)cc5)CC4)CC3)c2)C(=O)N1 [Example A88, N-[3-[5-[4-[4-[2-[4-[3-(2,4-Dioxo-1,3-diazinan-1-yl)phenyl]piperidin-1-yl]acetyl]piperazin-1-yl]phenyl]-1H-pyrrolo[2,3-b]pyridine-3-carbonyl]-2,4-difluorophenyl]pyrrolidine-1-sulfonamide] | 52 nM | 26% | –
7 | O=C1CCC(Nc2ccc(C3CCN(CCCC(=O)N4CC(c5ccc(-c6cnc7[nH]cc(C(=O)c8c(F)ccc(NS(=O)(=O)N9CCCC9)c8F)c7c6)cc5)C4)CC3)cc2)C(=O)N1 (stereo not drawn) [Example A89, N-[3-[5-[4-[1-[4-[4-[4-[(2,6-dioxopiperidin-3-yl)amino]phenyl]piperidin-1-yl]butanoyl]azetidin-3-yl]phenyl]-1H-pyrrolo[2,3-b]pyridine-3-carbonyl]-2,4-difluorophenyl]pyrrolidine-1-sulfonamide] | 73 nM | 12% | –
8 | CCN(C)S(=O)(=O)Nc1ccc(F)c(C(=O)c2c[nH]c3ncc(-c4cnc(N5CCC(N(C)CC(=O)N6CCC(c7ccc(NC8CCC(=O)NC8=O)cn7)CC6)CC5)nc4)cc23)c1F (stereo not drawn) [Example A90, 5-[2-[4-[[2-[4-[5-[(2,6-Dioxopiperidin-3-yl)amino]pyridin-2-yl]piperidin-1-yl]-2-oxoethyl]-methylamino]piperidin-1-yl]pyrimidin-5-yl]-3-[3-[[ethyl(methyl)sulfamoyl]amino]-2,6-difluorobenzoyl]-1H-pyrrolo[2,3-b]pyridine;formic acid] | 31 nM | 20% | –
9 | CCN(C)S(=O)(=O)Nc1ccc(F)c(C(=O)c2c[nH]c3ncc(-c4cnc(N5CCC(NCC(=O)N6CCC(c7ccc(NC8CCC(=O)NC8=O)cn7)CC6)CC5)nc4)cc23)c1F (stereo not drawn) [Example A93, 5-[2-[4-[[2-[4-[5-[(2,6-Dioxopiperidin-3-yl)amino]pyridin-2-yl]piperidin-1-yl]-2-oxoethyl]amino]piperidin-1-yl]pyrimidin-5-yl]-3-[3-[[ethyl(methyl)sulfamoyl]amino]-2,6-difluorobenzoyl]-1H-pyrrolo[2,3-b]pyridine;formic acid] | 16 nM | 14% | –
10 | CCN(C)S(=O)(=O)Nc1ccc(F)c(C(=O)c2c[nH]c3ncc(-c4cnc(N5CCC(C(=O)N6CCC(c7ccc(NC8CCC(=O)NC8=O)cc7)CC6)CC5)nc4)cc23)c1F (stereo not drawn) [Example A94, 5-[2-[4-[4-[4-[(2,6-Dioxopiperidin-3-yl)amino]phenyl]piperidine-1-carbonyl]piperidin-1-yl]pyrimidin-5-yl]-3-[3-[[ethyl(methyl)sulfamoyl]amino]-2,6-difluorobenzoyl]-1H-pyrrolo[2,3-b]pyridine] | 13 nM | – | 8%
11 | CCN(C)S(=O)(=O)Nc1ccc(F)c(C(=O)c2c[nH]c3ncc(-c4ccc(N5CCC(NCC(=O)N6CCC(c7ccc(NC8CCC(=O)NC8=O)cn7)CC6)CC5)cc4)cc23)c1F (stereo not drawn) [Example A96, 5-[4-[4-[[2-[4-[5-[(2,6-Dioxopiperidin-3-yl)amino]pyridin-2-yl]piperidin-1-yl]-2-oxoethyl]amino]piperidin-1-yl]phenyl]-3-[3-[[ethyl(methyl)sulfamoyl]amino]-2,6-difluorobenzoyl]-1H-pyrrolo[2,3-b]pyridine; hydrochloride] | 18 nM | 9% | –

Compounds with a lower DC50, results first:

Row | DC50 | Emax [1] | HiBit 24 h Emax [1] | Compound
12 | 8.93 nM | 15.4% | – | CCN(C)S(=O)(=O)Nc1ccc(F)c(C(=O)c2c[nH]c3ncc(-c4cnc(N5CCN(C(=O)[C@H]6C[C@@H](N7CCC(c8ccc(NC9CCC(=O)NC9=O)cc8)CC7)C6)CC5)nc4)cc23)c1F (stereo partly drawn) [Example A78, 5-[2-[4-[3-[4-[4-[(2,6-Dioxopiperidin-3-yl)amino]phenyl]piperidin-1-yl]cyclobutanecarbonyl]piperazin-1-yl]pyrimidin-5-yl]-3-[3-[[ethyl(methyl)sulfamoyl]amino]-2,6-difluorobenzoyl]-1H-pyrrolo[2,3-b]pyridine]
13 | 7.65 nM | 9.6% | – | CCN(C)S(=O)(=O)Nc1ccc(F)c(C(=O)c2c[nH]c3ncc(-c4ccc(N5CCN(C(=O)CN6CCC(c7ccc(C8CCC(=O)NC8=O)cc7)CC6)CC5)nc4)cc23)c1F (stereo not drawn) [Example A82, 5-[6-[4-[2-[4-[4-(2,6-Dioxopiperidin-3-yl)phenyl]piperidin-1-yl]acetyl]piperazin-1-yl]pyridin-3-yl]-3-[3-[[ethyl(methyl)sulfamoyl]amino]-2,6-difluorobenzoyl]-1H-pyrrolo[2,3-b]pyridine]
14 | 6.97 nM | 8.89% | – | CCN(C)S(=O)(=O)Nc1ccc(F)c(C(=O)c2c[nH]c3ncc(C#Cc4ccc(C(=O)N5CCC(N6CCC(c7ccc(NC8CCC(=O)NC8=O)cc7)CC6)CC5)cc4)cc23)c1F (stereo not drawn) [Example A83, 5-[2-[4-[4-[4-[4-[(2,6-Dioxopiperidin-3-yl)amino]phenyl]piperidin-1-yl]piperidine-1-carbonyl]phenyl]ethynyl]-3-[3-[[ethyl(methyl)sulfamoyl]amino]-2,6-difluorobenzoyl]-1H-pyrrolo[2,3-b]pyridine]
15 | 6 nM | 7% | – | CCN(C)S(=O)(=O)Nc1ccc(F)c(C(=O)c2c[nH]c3ncc(-c4cnc(N5CCN(C(=O)CN6CCC(c7ccc(NC89CC(C8)C(=O)NC9=O)cc7)CC6)CC5)nc4)cc23)c1F [Example A87, 5-[2-[4-[2-[4-[4-[(2,4-Dioxo-3-azabicyclo[3.1.1]heptan-1-yl)amino]phenyl]piperidin-1-yl]acetyl]piperazin-1-yl]pyrimidin-5-yl]-3-[3-[[ethyl(methyl)sulfamoyl]amino]2,6-difluorobenzoyl]-1H-pyrrolo[2,3-b]pyridine; formic acid]
16 | 5 nM | 8% | – | CCN(C)S(=O)(=O)Nc1ccc(F)c(C(=O)c2c[nH]c3ncc(-c4cnc(N5CCN(C(=O)CN6CCC(c7ccc(N8CCC(=O)NC8=O)cc7)CC6)CC5)nc4)cc23)c1F [Example A91, 5-[2-[4-[2-[4-[4-(2,4-Dioxo-1,3-diazinan-1-yl)phenyl]piperidin-1-yl]acetyl]piperazin-1-yl]pyrimidin-5-yl]-3-[3-[[ethyl(methyl)sulfamoyl]amino]-2,6-difluorobenzoyl]-1H-pyrrolo[2,3-b]pyridine]
17 | 8 nM | 7% | – | CCN(C)S(=O)(=O)Nc1ccc(F)c(C(=O)c2c[nH]c3ncc(-c4cnc(N5CCC(N(C)C(=O)CN6CCC(c7ccc(NC8CCC(=O)NC8=O)cn7)CC6)CC5)nc4)cc23)c1F (stereo not drawn) [Example A92, 2-[4-[5-[(2,6-Dioxopiperidin-3-yl)amino]pyridin-2-yl]piperidin-1-yl]-N-[1-[5-[3-[3-[[ethyl(methyl)sulfamoyl]amino]-2,6-difluorobenzoyl]-1H-pyrrolo[2,3-b]pyridin-5-yl]pyrimidin-2-yl]piperidin-4-yl]-N-methylacetamide; formic acid]
18 | 11 nM | 7% | – | CCN(C)S(=O)(=O)Nc1ccc(F)c(C(=O)c2c[nH]c3ncc(-c4ccc(N5CCC(N(C)C(=O)CN6CCC(c7ccc(NC8CCC(=O)NC8=O)cn7)CC6)CC5)nc4)cc23)c1F (stereo not drawn) [Example A95, 2-[4-[5-[(2,6-Dioxopiperidin-3-yl)amino]pyridin-2-yl]piperidin-1-yl]-N-[1-[5-[3-[3-[[ethyl(methyl)sulfamoyl]amino]-2,6-difluorobenzoyl]-1H-pyrrolo[2,3-b]pyridin-5-yl]pyridin-2-yl]piperidin-4-yl]-N-methylacetamide;hydrochloride]
